From patent US7304079B2, “Substituted indolealkanoic acids” (The Institute for Pharmaceutical Discovery, LLC, priority 1998, dated 2007)

Target: T1, human aldehyde reductase (hALR1) (Homo sapiens, UniProt P14550)
T1 sequence (P14550 1-325): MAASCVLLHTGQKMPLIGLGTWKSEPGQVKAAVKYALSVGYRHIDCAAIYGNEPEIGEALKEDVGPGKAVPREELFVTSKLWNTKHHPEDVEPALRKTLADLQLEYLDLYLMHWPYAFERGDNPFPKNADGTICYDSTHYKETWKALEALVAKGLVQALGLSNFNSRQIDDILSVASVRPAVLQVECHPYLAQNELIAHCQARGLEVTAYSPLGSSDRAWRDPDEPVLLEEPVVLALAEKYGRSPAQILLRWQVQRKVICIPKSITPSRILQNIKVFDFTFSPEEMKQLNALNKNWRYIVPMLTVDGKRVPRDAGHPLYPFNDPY
Assay: human aldehyde reductase (hALR1) inhibition
Assay type: biochemical
Procedure: In a second assay, a number of the same compounds were tested for their ability to inhibit aldehyde reductase (hALR1), a structurally related enzyme.

IC50: > 100 nM
SMILES: O=C(O)Cn1cc(Cc2nc3c(F)c(F)cc(F)c3s2)c2ccc(N3CCOCC3)cc21 [Example 18, 6-morpholino-3-(4,5,7-trifluorobenzothiazol-2-yl)methyl-indole-N-acetic acid]
